Assay: xn = mol fraction of the nth substance listed
Settings: 101 kPa, Liquid; for mass density: Vibrating tube method

NCCCO [3-amino-1-propanol] + CC(C)CO
Settings	mass density, 293.15 K [kg/m3]	mass density, 303.15 K [kg/m3]	mass density, 313.15 K [kg/m3]	mass density, 323.15 K [kg/m3]	mass density, 333.15 K [kg/m3]	viscosity, 293.15 K [mPa·s]	viscosity, 303.15 K [mPa·s]	viscosity, 313.15 K [mPa·s]	viscosity, 323.15 K [mPa·s]	viscosity, 333.15 K [mPa·s]
x1 = 0.1037	819.8	811.99	804.06	795.93	787.58	5.051	3.521	2.443	1.637	1.025
x1 = 0.2007	837.1	829.27	821.32	813.22	804.93	6.346	4.093	3.059	2.113	1.408
x1 = 0.3006	854.9	847.02	839.04	830.95	822.7	8.282	5.473	3.688	2.534	1.699
x1 = 0.4002	873.2	865.25	857.25	849.16	840.94	10.89	6.995	4.658	3.177	2.155
x1 = 0.501	891.9	883.89	875.86	867.78	859.58	13.95	8.794	5.767	3.903	2.693
x1 = 0.6007	910.4	902.41	894.47	886.34	878.16	17.71	10.85	7.048	4.73	3.251
x1 = 0.7008	929.5	921.49	913.45	905.35	897.17	21.85	13.33	8.496	5.666	3.88
x1 = 0.8005	948.6	940.49	932.36	924.27	916.24	27.18	16.12	10.09	6.695	4.573
x1 = 0.9005	–	960.24	952.19	944.09	935.93	33.2	19.47	12.19	8.029	5.424
x1 = 1	987.55	979.53	971.47	963.37	955.22	40.45	23.98	15.31	10.22	6.961

NCCCO [3-amino-1-propanol] + CC(C)O
Settings	mass density, 293.15 K [kg/m3]	mass density, 303.15 K [kg/m3]	mass density, 313.15 K [kg/m3]	mass density, 323.15 K [kg/m3]	mass density, 333.15 K [kg/m3]	viscosity, 293.15 K [mPa·s]	viscosity, 303.15 K [mPa·s]	viscosity, 313.15 K [mPa·s]	viscosity, 323.15 K [mPa·s]	viscosity, 333.15 K [mPa·s]
x1 = 0.1006	807.84	799.47	790.86	781.97	772.74	3.076	2.069	1.334	0.761	–
x1 = 0.2004	830.07	821.75	813.25	804.55	795.57	4.223	2.918	1.964	1.278	0.734
x1 = 0.3	851.78	843.5	835.07	826.48	817.69	5.489	3.955	2.745	1.879	1.203
x1 = 0.4007	873.12	864.86	856.49	848	839.34	7.957	5.363	3.704	2.559	1.75
x1 = 0.5003	894.23	885.99	877.67	869.25	860.69	11.01	7.213	4.931	3.402	2.367
x1 = 0.6	914.21	906	897.72	889.36	880.9	14.58	9.397	6.266	4.356	3.063
x1 = 0.7002	933.43	925.29	916.99	908.67	900.35	19.25	12.09	8.058	5.497	3.88
x1 = 0.8003	952.3	944.26	935.98	927.76	919.55	25.27	15.62	10.17	6.895	4.842
x1 = 0.9001	970.56	962.49	954.37	946.21	937.99	32.08	19.5	12.46	8.337	5.894
x1 = 1	987.65	979.65	971.61	963.52	955.38	40.46	23.98	15.31	10.22	6.962

Source: the NIST ThermoML archive (doi:10.1016/j.jct.2012.02.036)
